{
  "source": "patent US12077607B2",
  "about": "“Functional and therapeutic effects of PAR4 cleavage by cathepsin G” (UNIVERSITY OF UTAH RESEARCH FOUNDATION, priority 2021, dated 2024)",
  "key": {"[1]": {"molecular_target": "T1, WT human PAR4 (hPAR4) (Homo sapiens, UniProt Q96RI0)", "T1 construct": "Flag; expressed in transfected cells; host or cells: HEK293T/17 (ATCC CRL-11268)", "T1 sequence (Q96RI0 18-385)": "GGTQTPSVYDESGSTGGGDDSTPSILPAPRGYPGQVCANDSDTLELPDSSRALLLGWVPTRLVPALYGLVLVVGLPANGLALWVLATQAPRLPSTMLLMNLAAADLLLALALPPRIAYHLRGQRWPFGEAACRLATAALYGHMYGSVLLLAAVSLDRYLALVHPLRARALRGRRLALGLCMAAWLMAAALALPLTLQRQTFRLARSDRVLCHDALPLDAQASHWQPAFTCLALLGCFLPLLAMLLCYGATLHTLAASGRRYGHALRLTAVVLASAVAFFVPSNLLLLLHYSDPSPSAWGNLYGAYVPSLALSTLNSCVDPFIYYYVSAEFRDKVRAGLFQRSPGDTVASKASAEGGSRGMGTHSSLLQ", "experiment": "PAR4 calcium flux assay in HEK293T/17 cells expressing WT PAR4", "format": "cell-based", "settings": "1.5 mM peptide; HEK293T/17 cells", "method": "PAR4 calcium flux assays. PAR4-dependent calcium flux was measured using Fura2-QBT in platelets and HEK293T/17 cells with wild-type (WT) and mutant PAR4 (Tourdot et al., Arterioscler Thromb Vasc Biol. 2014; 34(12):2644-2650).\nPAR4 mutant calcium flux assays. Using Quikchange Lightning Site-Directed mutagenesis (Agilent) per manufacturing instructions, pCMV-Flag-PAR4-S66E, pCMV-Flag-PAR4-S67E, and pCMV-Flag-PAR4-R68E were generated from mutation of pCMV-Flag-PAR4 and confirmed by sequencing (University of Utah DNA Sequencing Core). Prior to transfection, HEK293T/17 cells (ATCC CRL-11268) were seeded at 4.5×10^4/mL. The following day, cells were transfected with the plasmid of interest using Lipofectamine 2000 (Invitrogen, Carlsbad, CA, USA). Twenty-four hours after transfection, media was removed and replaced with Optimem w/Glutamax (Gibco, Carlsbad, CA, USA) containing vorapaxar (100 nM) (Cayman Chemical, Ann Arbor, MI, USA) and Fura2-QBT (Molecular Devices). Following incubation for 1 hour at 37° C., plate was placed in the Flexstation 3 (Molecular Devices) where agonists, Tyrode's Buffer, cathepsin G (2.5 μM), or α-thrombin (1.5 U/mL), were injected onto cells and calcium mobilization was monitored and recorded."}, "[2]": {"tested_on": "washed platelets", "experiment": "Platelet activation by flow cytometry (PAC-1 binding, P-selectin)", "format": "cell-based, human", "settings": "1 mM peptide vs buffer; washed platelets", "method": "(§1) Platelet isolation, aggregation, and activation. Human washed platelets were prepared and resuspended in Tyrode's Buffer at 2×10^8/mL as described (Edelstein et al., Nat Med. 2013; 19(12):1609-1616). For human and dog platelet comparisons, platelets were prepared using a modified human platelet protocol with final concentrations of […] (Cayman Chemical, Ann Arbor, MI, USA) used during centrifugation steps. Centrifugations after Tyrode's washes was decreased to 1,250×g as described in Cremer et al., PLOS One. 2019; 14(11): e0224891. Platelet aggregation was measured under stirring conditions at 37° C. using a PAP-8E aggregometer after treatment with the following agonists: arachidonic acid (Bio/Data Corporation, Horsham, PA, USA), cathepsin G, elastase, proteinase 3 (Athens Research Group), α-thrombin (Sigma, St. Louis, MO, USA), PAR-1 peptide (SFLLRN) (GL Biochem, China). P-selectin and PAC-1 were measured as previously described (Yee et al., J Thromb Haemost. 2006; 4(9):2043-2050; Tourdot et al., Arterioscler Thromb Vasc Biol. 2014; 34(12):2644-2650).\n(§2) GYPGQV-NH2 (SEQ ID NO: 5), RALLLGWVPTR-NH2 (SEQ ID NO: 1), ALLLGWVPTR-NH2 (SEQ ID NO: 2), RALLLG-NH2 (SEQ ID NO: 4). Peptides were synthesized by BIOMATIK (Wilmington, DE, USA) at similar purities. All peptides were suspended in 50% DMSO and 50% ethanol. To measure platelet activation, washed platelets were stimulated with various concentrations of the peptide in the presence of CD41-APC, P-selectin (PE) and PAC-1 (FITC) for 15 minutes at 37° C. and then fixed with FACS Lysis Buffer. Samples were immediately run on a Cytoflex flow cytometer. In some experiments, platelets were stimulated with peptides and platelet aggregation performed as described above. Platelet calcium flux was induced by RALLLGWVPTR (2 mM; SEQ ID NO: 1), CatG (500 nM), ALLLGWVPTR (2 mM; SEQ ID NO: 2) or tyrodes buffer and monitored as described above."}, "[3]": {"tested_on": "washed platelets", "experiment": "Platelet aggregation of human washed platelets", "format": "cell-based", "settings": "for peptide concentration producing maximal platelet aggregation / platelet aggregation induced by peptide: washed platelets; for platelet aggregation induced by peptide: 1 mM peptide (RA-6mer 1 mM or 10 mM; AL-10mer independent of concentration)", "method": "as §1, §2"}, "[4]": {"tested_on": "mouse washed platelets", "experiment": "Platelet aggregation of mouse washed platelets", "format": "cell-based", "settings": "1 U/mL human thrombin, 1 μM human CatG or 1 mM RA-11mer", "from_the_text": "(§3) Animal studies. Mouse platelets were isolated as previously described from C57BL/6 mice (Denorme et al., Blood. 2020; 135(6):429-440). Dog platelets were isolated from whole blood drawn into ACD using a similar isolation procedure as for human platelets. All animal studies were approved by the University of Utah Institutional Animal Care and Use Committee (18-10012).\n(§4) Platelet and neutrophil isolation. Platelets and neutrophils were isolated as previously described (Yost et al., J Clin Invest. 2016; 126(10):3783-3798). Platelet isolation from dogs, rats and mice was approved by the IACUC. Platelet activation and aggregation were performed as previously described (Manne et al., Blood. 2020; 136(11): 1317-1329).\nas §1"}, "[5]": {"tested_on": "dog washed platelets", "experiment": "Platelet aggregation of dog washed platelets", "format": "cell-based", "settings": "1 U/mL human thrombin, 1 μM human CatG or 1 mM RA-11mer", "from_the_text": "as §3, §4, §1"}, "[6]": {"tested_on": "rat washed platelets", "experiment": "Platelet aggregation of rat washed platelets", "format": "cell-based", "settings": "1 U/mL human thrombin, 1 μM human CatG or 1 mM RA-11mer", "method": "as §4, §1"}, "[7]": {"tested_on": "washed platelets", "experiment": "Platelet calcium flux assay", "format": "cell-based, human", "settings": "CatG 500 nM; for platelet calcium flux: peptides 2 mM, FURA2-AM loaded washed platelets", "method": "Platelet calcium flux assay. Washed platelets were incubated at 37° C. for 1 hour in Tyrode's buffer (supplemented with pgel and heparin) with Fura-2AM (final concentration 2 μM). Platelets were washed and resuspended to a final concentration of 4×10^8/mL. Platelets were dispensed into a Costar 96-well half area clear bottom plate and placed in the Flexstation 3 (Molecular Devices) where cathepsin G (500 nM), buffer, or peptides (2 mM) were injected onto cells and calcium flux monitored.\nas §2"}, "[8]": {"molecular_target": "T2, PAR-1 (Homo sapiens, UniProt P25116)", "T2 construct": "endogenous in cells; host or cells: human washed platelets", "T2 sequence (P25116 22-425)": "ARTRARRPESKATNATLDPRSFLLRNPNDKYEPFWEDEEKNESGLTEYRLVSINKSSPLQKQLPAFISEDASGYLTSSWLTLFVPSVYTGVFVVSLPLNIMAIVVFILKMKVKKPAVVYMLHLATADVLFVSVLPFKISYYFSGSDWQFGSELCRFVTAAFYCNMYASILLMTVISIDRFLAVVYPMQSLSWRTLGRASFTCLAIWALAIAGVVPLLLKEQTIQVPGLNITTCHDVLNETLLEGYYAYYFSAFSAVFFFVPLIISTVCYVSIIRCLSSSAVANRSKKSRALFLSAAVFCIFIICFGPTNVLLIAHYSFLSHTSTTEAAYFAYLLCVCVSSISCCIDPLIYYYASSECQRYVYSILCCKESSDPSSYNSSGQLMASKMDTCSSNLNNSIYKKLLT", "experiment": "Antagonist study: PAR-1 inhibitor in platelet aggregation", "format": "cell-based", "settings": "100 nM VPX", "description": "Human washed platelets were prepared and resuspended in Tyrode's Buffer at 2×10^8/mL as described (Edelstein et al., Nat Med. 2013; 19(12):1609-1616). […] Platelet aggregation was measured under stirring conditions at 37° C. using a PAP-8E aggregometer after treatment with the following agonists: arachidonic acid (Bio/Data Corporation, Horsham, PA, USA), cathepsin G, elastase, proteinase 3 (Athens Research Group), α-thrombin (Sigma, St. Louis, MO, USA), PAR-1 peptide (SFLLRN) (GL Biochem, China).\nAntagonist Studies. Washed platelets were incubated for 15 minutes at 37° C. with PAR-4 blocking antibody RC3 (100 μg/mL) (generous gift from Regeneron Pharmaceuticals; French et al., Blood Adv. 2018; 2(11): 1283-1293), PAR-1 inhibitor vorapaxar (100 nM), and/or PAR-4 inhibitor BMS-986120 (400 nM) (Cayman Chemical, Ann Arbor, MI, USA)."}, "[9]": {"experiment": "Ability of peptide to go into solution", "format": "physicochemical", "settings": "numerous attempts with different solvents", "from_the_text": "Having said that, perhaps the hydrophobic portion of the C-terminus of RALLLGWVPTR (SEQ ID NO: 1) stabilizes the tethered ligand on the platelet plasma membrane."}},
  "note": "No end group written: not given here.",
  "data": [
    {"molecule": "RALLLGWVPTR (RALLLGWVPTR-NH2) [synthetic peptide representing the CatG-generated PAR4 tethered ligand]", "values": [
      {"measurement": "calcium flux in HEK cells transfected with WT PAR4 compared with mock", "setting": "[1]", "value": "induced calcium flux"},
      {"measurement": "granule release (P-selectin expression)", "setting": "[2]", "value": "increased"},
      {"measurement": "integrin activation (PAC-1 binding)", "setting": "[2]", "value": "increased"},
      {"measurement": "platelet aggregation, species comparison: humans", "setting": "[3]; 1 U/mL human thrombin, 1 μM human CatG or 1 mM RA-11mer", "value": "induced aggregation"},
      {"measurement": "potency as activator of PAR4, comparison", "setting": "[3]; from platelet aggregation data", "value": "more potent activator of PAR4 than the thrombin-generated tethered ligand"},
      {"measurement": "peptide concentration producing maximal platelet aggregation", "setting": "[3]", "value": 1, "unit": "mM"},
      {"measurement": "platelet aggregation induced by peptide", "setting": "[3]", "value": "increased"},
      {"measurement": "platelet aggregation, species comparison: mice", "setting": "[4]", "value": "induced aggregation only in humans and dogs"},
      {"measurement": "platelet aggregation, species comparison: dogs", "setting": "[5]", "value": "induced aggregation"},
      {"measurement": "platelet aggregation, species comparison: rats", "setting": "[6]", "value": "induced aggregation only in humans and dogs"},
      {"measurement": "peak platelet calcium flux, CatG compared with RALLLGWVPTR", "setting": "[7]; RA-11mer 2 mM", "value": "similar"},
      {"measurement": "platelet calcium flux", "setting": "[7]", "value": "significant and sustained calcium flux"}
    ]},
    {"molecule": "GYPGQV-NH2 [the thrombin-generated PAR4 tethered ligand, reference compound]", "values": [
      {"measurement": "peptide concentration producing maximal platelet aggregation", "setting": "[3]", "value": 6, "unit": "mM"}
    ]},
    {"molecule": "RALLLG-NH2 [6mer from the CatG tethered ligand]", "values": [
      {"measurement": "platelet aggregation induced by peptide", "setting": "[3]", "value": "not able to induce platelet aggregation"}
    ]},
    {"molecule": "CCOC(=O)N[C@@H]1CC[C@@H]2[C@@H](C1)C[C@H]1C(=O)O[C@H](C)[C@H]1[C@H]2/C=C/c1ccc(-c2cccc(F)c2)cn1", "note": "[VPX, vorapaxar]", "values": [
      {"measurement": "effect on thrombin-induced platelet aggregation", "setting": "[8]; 0.1 U/mL thrombin", "value": "abolished"},
      {"measurement": "effect on PAR1 activation by PAR1 activation peptide", "setting": "[8]; SFLLRN 10 μM", "value": "efficiently ablated PAR1 activation"}
    ]},
    {"molecule": "ALLLGWVPTR (ALLLGWVPTR-NH2) [10-mer PAR4 Tethered Ligand Fragment]", "values": [
      {"measurement": "platelet aggregation induced by peptide", "setting": "[3]", "value": "no discernable platelet aggregation"},
      {"measurement": "platelet calcium flux", "setting": "[7]", "value": "no discernable"}
    ]},
    {"molecule": "RALLLGWV [RALLLGWV 8mer, 8-mer PAR4 Tethered Ligand Fragment, intermediate length peptide]", "values": [
      {"measurement": "ability to go into solution", "setting": "[9]", "value": "inability to go into solution"}
    ]}
  ]
}
